A short description of series [1]: Compatibility tests of components, 1 month. Format: physicochemical. To be noted: for degradation of letrozole caused by PTSA: 1 months. The procedure:
The compatibility test was performed at room temperature (25° C.), 40° C. under 75% RH and 50° C., for 1 months with the various components tested in proportion to the intended composition.

The conditions of series [2]: pH dependence; cited from earlier work.

As for `N#Cc1ccc(C(c2ccc(C#N)cc2)n2cncn2)cc1` [letrozole, Letrozole], the “degradation of letrozole caused by PTSA” value in series [1] (25° C.) is reported as 5%; in series [1] (40° C.), 12%; in series [1] (50° C.) it was 15%.
Turning to `CC(=O)c1c(C)c2cnc(Nc3ccc(N4CCNCC4)cn3)nc2n(C2CCCC2)c1=O` [palbociclib base, Palbociclib], in series [1] (25° C., 40° C. and 50° C., one month), the “degradation of palbociclib base by PTSA” value is reported as “did not induce degradation”. Moreover, the solubility entry in series [2] is “soluble only in a strongly acidic medium”.

The record behind these values is US11672804B1, “Pharmaceutical composition containing palbociclib and letrozole” (EGIS Gyógyszergyár Zrt., priority 2022, dated 2023).
